Source: EP4692072A1, “PHOTOCHROMIC COMPOUND, PROPARGYL ALCOHOL COMPOUND, CURABLE COMPOSITION, OPTICAL ARTICLE, LENS, AND SPECTACLES” (TOKUYAMA CORPORATION, priority 2023, dated 2024)

Experiments:
Type in all cases: physicochemical
[1] = Accelerated deterioration (xenon weather meter X25, 120 hours) of photochromic laminate prepared by coating method; conditions: 0.25 mmol per 100 g monomers, A120/A0×100 after 120 hours xenon weather meter
Excerpt: (§1) First, the photochromic compound obtained in Example 1, a photoinitiator, and a polymerizable compound were mixed to obtain a curable composition.
(§2) Polyethylene glycol dimethacrylate (average molecular weight: 736): 42 parts by mass • Polyethylene glycol dimethacrylate (average molecular weight: 536): 12 parts by mass • Trimethylolpropane trimethacrylate: 38 parts by mass γ-methacryloyloxypropyl trimethoxysilane: 2 parts by mass Glycidyl methacrylate: 1 part by mass
(§3) Note that the photochromic compound was added to the curable composition so that the amount of the photochromic compound was 0.25 mmol based on 100 g of the total amount of the radical-polymerizable monomers.
(§4) Phenylbis(2,4,6-trimethylbenzoyl)phosphine oxide (photoinitiator: Omnirad 819): 0.3 parts by mass Ethylene bis(oxyethylene) bis[3-(5-tert-butyl-4-hydroxy-m-tolyl)propionate] (stabilizer, Irganox 245): 1 part by mass Bis(1,2,2,6,6-pentamethyl-4-piperidyl) sebacate: 3 parts by mass Leveling agent (L7001) manufactured by Dow Corning Toray Co.,Ltd.: 0.1 part by mass
(§5) First, a thiourethane-based plastic lens having a central thickness of 2 mm and a refractive index of 1.60 was prepared as the optical substrate. Note that this thiourethane-based plastic lens was pre-treated by alkaline etching with a 10% sodium hydroxide aqueous solution at 50°C for 5 minutes, followed by sufficient washing with distilled water.
(§6) A surface of the above-described plastic lens was coated with a moisture-curable primer (product name: TR-SC-P, manufactured by Tokuyama Corporation) at a rotation frequency of 70 rpm for 15 seconds, followed by 1000 rpm for 10 seconds, using a spin coater (1H-DX2, manufactured by MIKASA CO., LTD), Subsequently, about 2 g of the photochromic curable composition obtained above was spin-coated at a rotation frequency of 60 rpm for 40 seconds, followed by 600 rpm for 10 to 20 seconds, to form a photochromic coating layer with a film thickness of 40 µm.
(§7) The lens with the surface coated with the photochromic curable composition (photochromic coating layer) was irradiated with light using a metal halide lamp with an output power of 200 mW/cm^2 in a nitrogen gas atmosphere for 90 seconds to cure the coating film. Subsequently, the lens was further heated at 110°C for 1 hour to prepare a photochromic laminate having a photochromic layer.
(§8) • [1] Maximum Absorption Wavelength (λmax): The maximum absorption wavelength after color development, measured using a spectrophotometer (instantaneous multichannel photodetector MCPD3000) manufactured by Otsuka Electronics Co., Ltd. was used as an indicator for the color tone during the color development. • [2] 23°C Color Optical Density (A23): A difference between an absorbancy measured after light irradiation at 23°C for 300 seconds {ε(300)} and an absorbancy without light irradiation ε(0) at the maximum absorption wavelength was used as an indicator for the color optical density. […] 23°C color fading half-life [τ1/2 (sec.)]: A time required for the absorbancy of the sample at the maximum absorption wavelength to decrease to 1/2 of {ε(300)-ε(0)} when the light irradiation was terminated after the light irradiation at 23°C for 300 seconds, was used as an indicator for the color fading speed. The shorter this time, the higher the color fading speed. • [4] Residual rate (A120/A0×100): The obtained photochromic plastic lens was subjected to accelerated deterioration using a xenon weather meter X25 manufactured by Suga Test Instruments Co., Ltd. for 120 hours. Subsequently, the color optical density was evaluated before and after the test, then a color optical density before the test (A0) and a color optical density after the test (A120) were measured, and a ratio (A120/A0) was defined as a residual rate. The residual rate was used as an indicator for a color developing durability. The higher the residual rate, the higher the color developing durability. […]

[2] = Accelerated deterioration (xenon weather meter X25, 120 hours) of photochromic cured product prepared by kneading method; conditions: 1 mm cured product, 0.106 mmol per 100 g monomer, A120/A0×100 after 120 hours xenon weather meter
Experimental: (§9) • [1] Maximum Absorption Wavelength (λmax): The maximum absorption wavelength after color development, measured using a spectrophotometer (instantaneous multichannel photodetector MCPD3000) manufactured by Otsuka Electronics Co., Ltd. was used as an indicator for the color tone during the color development. • [2] 23°C Color Optical Density (A23): A difference between an absorbancy measured after light irradiation at 23°C for 300 seconds {ε(300)} and an absorbancy without light irradiation ε(0) at the maximum absorption wavelength was used as an indicator for the color optical density. […] 23°C color fading half-life [τ1/2 (sec.)]: A time required for the absorbancy of the sample at the maximum absorption wavelength to decrease to 1/2 of {ε(300)-ε(0)} when the light irradiation was terminated after the light irradiation at 23°C for 300 seconds, was used as an indicator for the color fading speed. The shorter this time, the higher the color fading speed. • [4] Residual rate (A120/A0×100): The obtained photochromic plastic lens was subjected to accelerated deterioration using a xenon weather meter X25 manufactured by Suga Test Instruments Co., Ltd. for 120 hours. Subsequently, the color optical density was evaluated before and after the test, then a color optical density before the test (A0) and a color optical density after the test (A120) were measured, and a ratio (A120/A0) was defined as a residual rate. The residual rate was used as an indicator for a color developing durability. The higher the residual rate, the higher the color developing durability. The results of Examples 26, 50, and Comparative Examples 1 to 8 are summarized in Table 1, and the results of Examples 27 to 49 are summarized in Tables 2 and 3.
(§10) First, the photochromic compound obtained in Example 1, additives, and a polymerizable compound were mixed to obtain a curable composition.
(§11) As the polymerizable compound, a combination of the following polymerizable monomers was used. • 1,3-bis(isocyanatomethyl)cyclohexane: 36.7 parts by mass Pentaerythritol tetrakis(3-mercaptopropionate): 39.4 parts by mass • Polyoxyethylene polyoxypropylene lauryl ether (Wonder Surf 140 manufactured by Aoki Oil Industrial Co., Ltd.): 17.4 parts by mass • 1-decanethiol: 2.8 parts by mass • RX-1 adjusted according to the method described in Patent Document 13: 3.8 parts by mass
(§12) Note that the photochromic compound was added to the curable composition so that the amount of the photochromic compound was 0.106 mmol based on 100 g of the total amount of the polymerizable monomer. The following additives were used: Dimethyltin dichloride • : 0.05 part by mass • Irganox 245: 0.1 part by mass • 2-ethylhexyl 4-methoxycinnamate: 0.6 part by mass
(§13) The prepared curable composition was thoroughly defoamed, then injected into a glass mold having a 1 mm gap, and polymerized by cast polymerization. The polymerization was carried out in an air furnace while gradually raising the temperature from 27°C to 120°C over 18 hours. After the polymerization, the cured product was removed from the glass mold to obtain a photochromic cured product having a thickness of 1 mm. The obtained photochromic cured product was evaluated in the same manner as in Example 26.
(§14) (Examples 85 to 99, and Comparative Example 14 to 18) Photochromic cured products were prepared using photochromic compounds presented in Tables 6 and 7 in the same manner as in Example 84. The results of Examples 84 and 85 and Comparative Examples 14 to 18 are summarized in Table 6, and the results of Examples 86 to 99 are summarized in Table 7.

[3] = Photochromic properties of photochromic laminate (plastic lens) prepared by coating method; conditions: 40 µm photochromic layer on thiourethane lens, 0.25 mmol compound per 100 g monomers, after color development
Excerpt: as §1, §2, §3, §4, §5, §6, §7
In the same manner as in Example 26, photochromic laminates were prepared using the photochromic compounds obtained in Examples 2 to 25.
as §8, with “durability.” for “durability. The higher the residual rate, the higher the color developing durability.”

[4] = Photochromic properties of photochromic cured product prepared by kneading method; conditions: 0.106 mmol per 100 g monomer
Experimental: as §9, §10, §11, §12, §13, §14

CCC1(CC)CCC2(CC1)c1ccccc1-c1c2c2c(c3cc(OC)c(N(c4ccccc4)c4ccccc4)cc13)OC(c1ccc(C)cc1)(c1ccc(N(C)c3ccc(C)cc3)cc1)C=C2 (centres unmarked) [Example 2]
Residual rate [1]: 67%
Residual rate [2]: 72%
Maximum absorption wavelength [3]: 522 nm
A23 ([4]; 1 mm cured product, 23°C color optical density ε(300)-ε(0)): 1.41 -
Maximum absorption wavelength ([4]; 1 mm thiourethane cured product, after color development): 526 nm
